The source of these data is patent publication US20240092778A1, “TOPICAL PHARMACEUTICAL COMPOSITIONS AND METHODS” (PYRAMID BIOSCIENCES, INC., priority 2020, published 2024).

Where two headings read alike, the source gives them in different places.

Data set [1] concerns human skin. Description: Cumulative irritant patch test (RIPT, 21 days) in healthy participants. Particulars: occlusive patch, healthy subjects.
Description: The objective of this study was to assess the primary irritancy potential of Compound A mesylate Topical Cream in human skin using a Repeat Insult Patch Testing (RIPT) over twenty-one (21) days.
This RIPT was an open-label, single-arm (cell), randomized, evaluator-blinded study wherein test products were applied under an occlusive dressing to the upper back or upper arm continuously and repeatedly to the same site for a period of 21 days. Three concentrations of The Cream described in Example 13 (0.1%, 0.03%, 0.01%) and Vehicle (Placebo Cream—0%) were applied to the skin of healthy subjects aged 18-70 with a Fitzpatrick Skin Type of I-III. In addition, one site was treated with 0.4 ml of 0.25% sodium lauryl sulfate (SLS) as a positive control and another site was treated with a plain Webril patch (cotton cloth) which served as a negative control. The total daily dose of Compound A received by each subject was 560 μg (0.4 ml of each of the three concentrations/3 different sites) or approximately 8 μg/kg. The evaluator graded the level of irritation for each test site at every study visit and was blinded as to the identity of the test products. The targeted sample size was at least 25 subjects (n=25) at completion.
Approximately 0.4 ml of each test material was spread uniformly onto a 15 mm diameter circular disc of non-absorbing cotton cloth (Webril) using micropipettes or plastic tuberculin syringes. The treated circular disc was applied to the designated skin site (see Randomization Section below) measuring 15 mm in diameter on the upper arm or upper back. In addition to the test products, one site was treated with 0.4 ml of 0.25% sodium lauryl sulfate (SLS) as a positive control and another site was treated with a plain Webril patch (cotton cloth) as a negative control. Each site was covered with an occlusive tape (Blenderm, 3M) and the entire patch fastened to the skin with Scanpor or Hypafix Tape to ensure intimate contact with the skin. The initial patch was applied on Day 0 and grading began on Day 1.
Subjects returned to the testing facility once daily (Monday to Friday). […] Subjects were questioned and assessed for adverse events as well as any changes in their health or concomitant medications at every study visit. […]
All patches were inspected at each study visit and adhesion issues were noted when present. Patch sites were inspected and irritant reactions provoked during the study were recorded daily (Monday-Friday). […]
The CII was calculated for each product as well as the positive and negative control sites. The CII is the ratio calculated by dividing the sum of the cumulative irritation scores (SCS) from all subjects by the number of subjects in the completed panel×the maximum tolerated score per patch site (3)×the number of grading assessments (15).
Data set [2] relates to rabbits. As to the kind of experiment: Skin irritation (erythema and edema). It is filed as in vivo, rabbit.
A short description of data set [3]: One-month rat oral toxicity study. It counts as in vivo. As to conditions: in vivo, oral, for the myocardial findings. An excerpt:
(§1) Toxicity evaluation of Compound A mesylate salt has comprised range-finding and pivotal repeat dose dermal and oral toxicology studies in minipigs, rats and dogs. The dermal route of administration was chosen because it is the intended to be the human therapeutic route. As per International Council for Harmonisation (ICH) guidelines, the oral route was selected in rats and dogs to assess systemic toxicity and to support dermal administration. The minipig was selected as the species for formal dermal toxicology testing of Compound A mesylate salt.
(§2) The NOAEL for these findings was 0.5 mg/kg/day.

Data set [4] has as its system rats. Description: One-month rat oral toxicity study. It counts as in vivo.
Description: as §1, §2

A short description of data set [5]: Solubility of Compound A mesylate salt Form B in excipients and buffers. It counts as physicochemical. As for the experimental part:
The solubility was determined visually. The approximate amount of drug dissolved was calculated as mg/g of compound soluble in each solvent tested.
The steps involved in performing the solubility study were as follows: • a) Label scintillation vials appropriately for each excipient that were tested. • b) Stir bar was placed in each vial and weighed the empty vial containing stir bar and cap with inert liner. Recorded the TARE weight. • c) Approximately 5.0 g of each excipient was weighed into the designated vial and approximately 5 mg of the API (Compound A mesylate salt) was added to into each vial. • d) All the closed vials were placed on a multi-position stir plate and allowed to mix for at least 15 minutes at ambient conditions. • e) Visually inspected to see if the API has completely dissolved. • f) If the API has dissolved, the last 3 steps were repeated. Additional API aliquots added to the mixture were recorded till saturation solubility reached. […] Stirring the solutions was continued overnight at ambient temperature to confirm solubility is maintained. • g) If API has not completely dissolved, continue stirring samples overnight at ambient conditions. • h) The final weight of the vial, cap, stir bar, and sample were recorded. • i) Further, the final observations were recorded as needed to document the observations.

The test system of data set [6] is minipigs. As to the kind of experiment: Non-GLP 7-day intravenous study. As to conditions: daily for 7 days. It is filed as in vivo, minipig. Here is the method: To understand the relationship between potential Compound A mesylate exposure and toxicity (clinical observations), a non-GLP intravenous study was conducted. In this study, minipigs were administered up to 10 mg/kg daily for 7 days by intravenous administration to determine Compound A mesylate exposure and clinical observations. Overall, minipigs tolerated intravenous dose of up to 10 mg/kg/day for 7 seven days without any adverse clinical signs.

The nature of data set [7]: Dog oral toxicity studies (one-month). It counts as in vivo. Particulars: in vivo, one-month study.
Description: as §1
(§3) The NOAEL for the one-month study was 2 mg/kg/day.

In data set [8] the test system is dogs. As to the kind of experiment: Dog oral toxicity studies (one-month). It counts as in vivo.
Description: as §1, §3

Data set [9] deals with Primary human keratinocytes. Description: Human primary keratinocytes proliferation assay (BrdU incorporation). As to conditions: for IC50: Homo sapiens, Keratinocyte, read-out: calculated potency (IC50) to block cell proliferation. It counts as cell-based. As for the experimental part:
Primary human keratinocytes (KMF112410A) were grown in 96-well plates and exposed to different concentration of Compound A mesylate salt, 0.1 nM to 100 μM, for 24 hours or 72 hours.
After 4 hours, the medium was removed and 100 μL of the Fixing/Denaturing solution (paraformaldehyde) was added to each well and allowed to incubate at room temperature for 30 minutes. After 30 minutes, the fixing solution was removed and 100 μl of the prepared 1× detection antibody (Cell Signaling Assay Kit, Catalogue No. 6813) was added to each well and allowed to incubate at room temperature for 1 hour. The plate was then washed 3 times with prepared wash buffer (details of wash buffer; PBS saline).
After washing, 100 μL of the prepared 1× Horseradish Peroxidase (HRP)-conjugated secondary antibody solution was added to each well and allowed to incubate at room temperature for 30 minutes. The plate was then washed 3 times with prepared wash buffer.
After washing the 100 μL 3,3′,5,5′-Tetramethylbenzidine (TMB) substrate was added to each well and incubated 30 minutes at room temperature. After 30 minutes, 100 μL of stop solution ([…]) was added to each well and the absorbance was read at 450 nm using a microplate Reader SpectraMax iD3 (Molecular Devices). The magnitude of the absorbance for the developed color is proportional to the quantity of BrdU incorporated into cells, which is a direct indication of cell proliferation, and negative control (50% supplemented keratinocyte growth medium alone) was used as reference to evaluate cell proliferation inhibition (levels <100%) or activation (levels >100%).

Data set [10] concerns Gottingen Minipigs. Description: 28-day repeat dose dermal toxicity study. It is filed as in vivo, minipig.
Description: as §1
(§4) To support dermal administration of Compound A mesylate, in addition to oral repeat-dose toxicity studies in rats and dogs, dermal toxicity studies in minipigs were conducted. A 28-day repeat dose toxicity study was conducted by dermal application of Compound A mesylate salt at doses in the range of 0.1 mg/kg to 1 mg/kg.
(§5) The 28-day dose toxicity study was initiated at doses in the range of 0.1 to 1.0 mg/kg.

The nature of data set [11]: 28-day repeat dose dermal toxicity study. Particulars: Gottingen, minipig, in vivo, topical or ocular; for Cmax / AUC(0-t): 1 mg/kg/day dermal, Day 28; for AUC(0-t): read-out: AUC0-Tlast. It counts as in vivo, minipig.
Description: as §1, §4, §5

Data set [12] has as its system guinea pigs. As to the kind of experiment: Contact sensitization. It counts as in vivo, guinea pig.
The nature of data set [13]: Drug excipient compatibility study (physical appearance, % label claim, total impurities). It counts as physicochemical. Here is the method:
The goal of the drug excipient compatibility study was to identify excipients that are incompatible with the Compound A mesylate salt (Form B), resulting in high impurity growth compared to the baseline (To). The compatibility of the compound in selected excipients was assessed by mixing the compound with individual excipients and placing the mixtures on stability studies for 2 or 4 weeks at 25° C./60% RH and 40° C./75% RH. If the compound was insoluble in any excipient, the sample was prepared by first dissolving Compound A mesylate salt in a solvent (purified water) and then mixing with the excipient in a 1:1 ratio. A stock solution of the Compound A mesylate salt in water (0.45% w/w) was used. The total level of impurities over 4 weeks at the two stability conditions were measured.
Physical appearance of Drug-Excipient mixture was evaluated visually, and the observations were recorded which are summarized in Table 2.
In summary, the compound was stable when mixed with the following chemicals: isopropyl myristate, ethanol, medium chain triglycerides, light mineral oil, cyclomethicone, white petrolatum, span 80, glycerin, sorbitol solution 70%, HPMC, HPC, and stearyl alcohol.

The test system of data set [14] is bovine cornea. As to the kind of experiment: Bovine corneal opacity and permeability (BCOP) assay.
Data set [15] concerns the target T1, TRKB (Homo sapiens, UniProt Q16620).
T1 construct: in cell-based systems overexpressing wild-type, full-length, human TRK receptors; expressed in transfected cells
As to the kind of experiment: TRKB activity in cell-based system overexpressing wild-type full-length receptor. Particulars: cell-based systems overexpressing wild-type, human TRK receptors. An excerpt:
(§6) Compound A is a highly specific pan-TRK inhibitor with a mechanism of action that is competitive with the adenosine triphosphate (ATP) binding site of TRKA.

Data set [16] concerns the target T2, TRKC (Homo sapiens, UniProt Q16288).
T2 construct: in cell-based systems overexpressing wild-type, full-length, human TRK receptors; expressed in transfected cells
Description: TRKC activity in cell-based system overexpressing wild-type full-length receptor. As to conditions: cell-based systems overexpressing wild-type, human TRK receptors.
Description: as §6

Data set [17] has as its system adults with recurrent glioblastoma multiforme (GBM). As to conditions: up to 60 mg daily; cited from earlier work.
Data set [18] concerns the target T3, TRKA (Homo sapiens, UniProt P04629).
T3 construct: host or cells: cells, not specified
As to the kind of experiment: TRKA inhibition in cells (IC50). It counts as cell-based. Particulars: read-out: half maximal inhibitory concentration (IC50) for TRKA.
Description: as §6

In data set [19] the test system is Primary human keratinocytes. As to conditions: at their respective concentration (Dox 1 μM) after 24 and 72 hours of exposure.
Description: Cell death/apoptosis was determined by Propidium Iodide (PI) and Annexin V staining.
For the cell death/apoptosis, human primary neonatal keratinocytes were cultured (5,000 cells/well) in clear bottom 96-well plates overnight. The next morning, growth medium was removed and replaced with 50% supplemented keratinocyte growth medium containing compounds and controls.
After 24 or 72 hours treatment, 200 μL of the prepared 1:100 Annexin V (Biovision, catalog number K101) and PI in 1× binding buffer solution was added to each of the wells and allowed to incubate at room temperature for 5 minutes. Cells were then washed with DPBS (Dulbecco's Phosphate-Buffered Saline) and fixed for 30 minutes in 2% Paraformaldehyde (PFA). Following fixation, cells were washed 3× with 200 μL of DPBS. A final volume of 100 μL of DPBS were added to the wells. Quantification of Annexin V and PI were assessed using the Array Scan High Content Imaging System (ThermoFisher).
The signal quantified for Annexin V, an early apoptosis event marker (FIG. 5) and PI to assess cell death (apoptosis and necrosis) was compared to negative control (50% supplemented media) to determine the percentage of viability (FIG. 6).
The mark [20] stands for this setting: T = 0 (Table 3a, 25° C./60% RH).
Setting [21] is: T = 0 (Table 3b, 40° C./75% RH).

T1 sequence (Q16620 32-822): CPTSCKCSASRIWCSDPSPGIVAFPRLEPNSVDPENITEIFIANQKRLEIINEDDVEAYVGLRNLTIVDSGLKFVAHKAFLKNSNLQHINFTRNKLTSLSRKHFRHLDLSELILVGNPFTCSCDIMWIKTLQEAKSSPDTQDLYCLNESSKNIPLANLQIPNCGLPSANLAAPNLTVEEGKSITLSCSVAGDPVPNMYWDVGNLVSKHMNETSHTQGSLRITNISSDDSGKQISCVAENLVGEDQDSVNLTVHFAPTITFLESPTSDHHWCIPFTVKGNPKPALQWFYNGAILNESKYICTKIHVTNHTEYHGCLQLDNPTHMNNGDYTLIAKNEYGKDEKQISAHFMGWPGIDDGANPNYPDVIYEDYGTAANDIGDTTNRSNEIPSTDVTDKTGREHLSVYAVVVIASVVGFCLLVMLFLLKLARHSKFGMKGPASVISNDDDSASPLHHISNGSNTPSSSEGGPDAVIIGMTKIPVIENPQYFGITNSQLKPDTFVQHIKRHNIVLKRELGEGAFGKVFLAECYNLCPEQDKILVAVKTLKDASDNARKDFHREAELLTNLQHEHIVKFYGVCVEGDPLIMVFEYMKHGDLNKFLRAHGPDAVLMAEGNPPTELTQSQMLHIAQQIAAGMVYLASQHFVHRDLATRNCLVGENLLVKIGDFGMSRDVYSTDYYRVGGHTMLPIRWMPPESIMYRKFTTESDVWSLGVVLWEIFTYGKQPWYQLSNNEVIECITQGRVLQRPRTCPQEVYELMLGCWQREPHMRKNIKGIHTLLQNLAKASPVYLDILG
T2 sequence (Q16288 32-839): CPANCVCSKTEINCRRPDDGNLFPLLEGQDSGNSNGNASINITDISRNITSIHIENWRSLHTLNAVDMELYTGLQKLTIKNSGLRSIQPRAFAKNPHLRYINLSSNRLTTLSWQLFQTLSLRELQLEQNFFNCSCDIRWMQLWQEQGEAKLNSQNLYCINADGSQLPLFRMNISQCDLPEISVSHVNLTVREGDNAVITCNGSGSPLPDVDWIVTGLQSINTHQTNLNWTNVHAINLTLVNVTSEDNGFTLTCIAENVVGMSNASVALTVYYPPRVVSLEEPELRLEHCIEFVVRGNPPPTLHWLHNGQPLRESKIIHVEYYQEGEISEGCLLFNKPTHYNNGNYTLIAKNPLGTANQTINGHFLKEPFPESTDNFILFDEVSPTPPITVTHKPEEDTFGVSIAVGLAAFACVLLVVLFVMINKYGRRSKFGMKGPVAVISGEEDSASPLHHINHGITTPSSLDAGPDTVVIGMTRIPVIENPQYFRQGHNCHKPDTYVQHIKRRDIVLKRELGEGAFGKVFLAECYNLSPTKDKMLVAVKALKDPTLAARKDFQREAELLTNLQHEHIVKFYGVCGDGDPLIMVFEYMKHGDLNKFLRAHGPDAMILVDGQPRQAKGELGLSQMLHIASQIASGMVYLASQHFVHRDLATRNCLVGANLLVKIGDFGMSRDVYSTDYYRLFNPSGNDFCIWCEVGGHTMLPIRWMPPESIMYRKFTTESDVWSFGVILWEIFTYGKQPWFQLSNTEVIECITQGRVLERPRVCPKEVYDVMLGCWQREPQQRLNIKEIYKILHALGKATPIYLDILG
T3 sequence (P04629 33-796): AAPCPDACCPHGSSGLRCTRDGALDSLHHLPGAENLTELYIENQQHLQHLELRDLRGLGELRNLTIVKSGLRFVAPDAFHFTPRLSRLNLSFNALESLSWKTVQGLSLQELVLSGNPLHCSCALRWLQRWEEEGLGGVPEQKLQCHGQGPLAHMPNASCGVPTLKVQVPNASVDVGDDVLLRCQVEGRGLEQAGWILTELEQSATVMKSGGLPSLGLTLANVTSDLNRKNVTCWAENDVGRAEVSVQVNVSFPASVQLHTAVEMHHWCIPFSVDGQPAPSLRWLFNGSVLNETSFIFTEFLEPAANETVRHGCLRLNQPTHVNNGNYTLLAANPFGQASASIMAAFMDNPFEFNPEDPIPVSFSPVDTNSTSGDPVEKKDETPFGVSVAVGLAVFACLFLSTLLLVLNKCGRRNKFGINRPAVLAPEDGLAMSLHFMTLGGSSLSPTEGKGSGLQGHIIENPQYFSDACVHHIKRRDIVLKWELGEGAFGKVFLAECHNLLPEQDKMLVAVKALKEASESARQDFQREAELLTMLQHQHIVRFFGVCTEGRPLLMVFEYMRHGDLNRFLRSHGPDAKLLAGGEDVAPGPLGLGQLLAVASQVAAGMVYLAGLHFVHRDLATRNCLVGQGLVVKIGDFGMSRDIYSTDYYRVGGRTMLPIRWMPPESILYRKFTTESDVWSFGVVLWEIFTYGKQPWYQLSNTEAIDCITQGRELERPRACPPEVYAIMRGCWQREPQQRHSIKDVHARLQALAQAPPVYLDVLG

As to `CCCCCCCCCCCCOS(=O)(=O)[O-].[Na+]` [0.25% Sodium Lauryl Sulfate, sodium lauryl sulfate], in data set [1], the “Cumulative Irritation Index (CII)” value came out at 0.24, the “Mean Cumulative Irritation Score” value was 10.89, the “Mean Daily Score” value stood at 0.73 and the “Sum of Cumulative Scores” value was 294.

For `CC(C)Oc1cc(-n2cnc3ccc(N[C@@H](C)c4ncc(F)cn4)nc32)n[nH]1.CS(=O)(=O)O` [Compound A mesylate salt, N-[(1S)-1-(5-fluoropyrimidin-2-yl)ethyl]-3-(5-isopropoxy-1H-pyrazol-3-yl)-3H-imidazo[4,5-b]pyridin-5-amine mesylate], the “irritation (erythema and edema)” value in [2] is reported as “non-irritant”. Moreover, the NOAEL (as a rule, the highest dose or exposure tested at which no adverse effect was seen) at 1 month in data set [3] came out at 0.5 mg/kg/day; in data set [7], 2 mg/kg/day. For the same molecule, the histopathological findings result in data set [4] was “myocardial inflammation, fibrosis and increased plasma phosphate and Troponin I in a minority of animals”. The “food consumption and body weight gain” value in [4] (all dose levels) was “marked increase”. For the same molecule, in [5] (in Ethanol, 24 hours at room temperature, visual), the “Solubility” value is given as no less than 6.61 mg/g. Moreover, the water solubility in data set [5] (in water) is given as roughly 9.5 % w/w. Besides, the Observation result in data set [5] (solubility study in Citrate buffer (pH 5.6)) was “Aggregated”; in [5] (solubility study in Ethanol), “Solubilized”; in data set [5] (solubility study in Phosphate buffer (pH 7.4)), “Aggregated”. Besides, the “tolerated intravenous dose without any adverse clinical signs” value in data set [6] is recorded as “up to 10 mg/kg/day”. The “effects on body weight, food consumption, clinical pathology, or histopathology” value in [8] is listed as “no compound-related effects”. Further, in data set [8] (episodes of emesis and soft/fluid feces), the tolerability entry is “generally well tolerated”. In addition, the IC50 in [9] (24 hours) is 1.25 µM; in data set [9] (72 hours) it was 0.097 µM. Further, the “dose showing significant inhibition of proliferation” value is reported as no less than 100 nM in [9] (after 24 hours of treatment) and no less than 10 nM in data set [9] (after 72 h treatment). Besides, the “tolerability of dermal application” value in [10] (0.1, 0.3, and 1 mg/kg/day for 28 consecutive days) is on record as “well tolerated”. In data set [10] (minipigs), the “systemic exposure after dermal administration compared to intravenous administration” value was “significantly lower”. Further, the NOAEL at 28 days in data set [11] (both sexes, dermal, 28 days) was 1 mg/kg/day. The Cmax (usually the peak of the concentration-time curve) was found to be 2.52 ng/mL in [11] (female, females) and 3.03 ng/mL in [11] (male, males). Besides, the AUC(0-t) in [11] (female, females) was 0.0372 µg·h/mL; in data set [11] (male, males) it was 0.0326 µg·h/mL. Besides, the contact sensitization result in [12] is given as “not considered to be contact sensitizers”. The “% Label Claim” value in [13] (setting [20]) is on record as 99.9%; in [13] (setting [21]), 99.9%; in data set [13] (T = 2 weeks, 25° C./60% RH) it was 99.2%; in [13] (T = 2 weeks, 40° C./75% RH), 99.7%; in data set [13] (T = 4 weeks, 25° C./60% RH), 100.5%; in [13] (T = 4 weeks, 40° C./75% RH), 99.1%. The “Total Impurities (%)” value in [13] (setting [20]) was 0.00%; in [13] (setting [21]), 0.00%; in data set [13] (T = 2 weeks, 25° C./60% RH) it was 0.00%; in [13] (T = 2 weeks, 40° C./75% RH), 0.00%; in data set [13] (T = 4 weeks, 25° C./60% RH) it was 0.00%; in data set [13] (T = 4 weeks, 40° C./75% RH), 0.00%. Moreover, the “Oxidation Adjusted” value in data set [13] (T = 2 weeks, 40° C./75% RH) was 0.00; in data set [13] (T = 4 weeks, 40° C./75% RH) it was 0.00. In addition, in data set [14], the ocular irritation entry is recorded as “did not induce ocular irritation”.

Consider `CC(C)Oc1cc(-n2cnc3ccc(N[C@@H](C)c4ncc(F)cn4)nc32)n[nH]1` [Compound A, N-[(1S)-1-(5-fluoropyrimidin-2-yl)ethyl]-3-(5-isopropoxy-1H-pyrazol-3-yl)-3H-imidazo[4,5-b]pyridin-5-amine], for which the “in-vitro activity against TRKB, concentration” value in data set [15] is on record as “below 5 nM”. For the same molecule, the “in-vitro activity against TRKC, concentration” value in data set [16] was “below 5 nM”. In addition, in [17], the “early efficacy signals in GBM patients” value was “No early efficacy signals”. Moreover, the IC50 in data set [18] turned out to be 0.0002 µM.

Regarding `COC(=O)[C@@]1(O)C[C@H]2O[C@]1(C)n1c3ccccc3c3c4c(c5c6ccccc6n2c5c31)C(=O)NC4` [Compound K252a], in data set [19], the “cell death (Annexin V / PI) versus negative control” value is reported as “significant cell death”.
